Assay results: US11466013B2 (Betta Pharmaceuticals Co., LTD, priority 2018, dated 2022)

Legend:
ERK2 = ERK2 (Homo sapiens, UniProt P28482); experiment: Kinase assay (Caliper, FAM-labeled peptide), ERK2; assay type: biochemical
Method in brief: (§1)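 Kinase preincubated 10 min at room temperature with serially diluted compound before FAM-labeled peptide plus ATP added; reaction run at 28 °C, then stopped. Substrate conversion read by Caliper mobility shift, normalized to DMSO and low controls, curve-fitted for IC50.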

ERK1 = ERK1 (Homo sapiens, UniProt P27361); experiment: Kinase assay (Caliper, FAM-labeled peptide), ERK1; assay type: biochemical
ERK1, sequence (P27361 whole entry): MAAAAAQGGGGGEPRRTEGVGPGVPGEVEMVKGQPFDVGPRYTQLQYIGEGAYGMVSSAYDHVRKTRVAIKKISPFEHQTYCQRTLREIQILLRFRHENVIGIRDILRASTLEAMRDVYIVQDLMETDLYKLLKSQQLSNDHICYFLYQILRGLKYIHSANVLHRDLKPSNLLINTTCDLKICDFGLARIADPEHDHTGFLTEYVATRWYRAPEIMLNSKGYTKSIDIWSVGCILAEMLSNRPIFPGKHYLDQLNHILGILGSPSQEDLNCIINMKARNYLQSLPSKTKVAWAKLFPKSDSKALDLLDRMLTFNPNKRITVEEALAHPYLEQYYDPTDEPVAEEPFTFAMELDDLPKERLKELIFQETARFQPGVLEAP
Method in brief: as §1

COLO205 cells = experiment: Cell proliferation assay (COLO205), Cell-titer Glo; assay type: cell-based; details: Homo sapiens, COLO 205, 120 h incubation
Protocol: COLO205 cells were spread into a 96-well plate at 135 μL/well at 2000 cells. After incubating overnight, compound solutions of gradient concentration was prepared, and added 15 μL of DMSO solution of the test compound of each concentration to the cells of each well. The final concentration of the compound was 30000, 10000, 3333.3, 1111.1, 370.4, 123.5, 41.2, 13.7, 4.6, 0 nM (the final concentration of DMSO was 0.5%). 5% CO2 was incubated for 120 h at 37° C. 50 μL of Cell-titer Glo working solution was added to each well, shaked and mixed, and incubated at room temperature for 10 minutes. The multi-functional microplate reader read the luminescence value, and converted the luminescence value reading into inhibition percentage. Inhibition percentage=(maximum value−reading)/(maximum value−minimum value)*100.
The “maximum value” was the DMSO control, the “minimum value” indicates the cell-free control group.
(§2) Graphpad Prism software was used to perform curve fitting and obtain IC50 value.

HCT 116 cells = experiment: Cell proliferation assay (HCT 116), Cell-titer Glo; assay type: cell-based; details: Homo sapiens, 120 h incubation
Protocol: The HCT 116 cells were paved in a 96-well plate at 1200 cells, 160 μL/well. After incubating overnight, the compound solutions of gradient concentration was prepared, and 40 μL of DMSO solution of the test compound of each concentration was added to the cells of each well. The final concentration of the compound was 30000, 10000, 3333.3, 1111.1, 370.4, 123.5, 41.2, 13.7, 4.6, 0 nM (the final concentration of DMSO was 0.5%). 5% CO2 was incubated for 120 h at 37° C. 50 μL of Cell-titer Glo working solution was added to each well, shaked and mixed, and incubated at room temperature for 10 minutes. The multi-functional microplate reader read the luminescence value, and converted the luminescence value reading into inhibition percentage. Inhibition percentage=(maximum value−reading)/(maximum value−minimum value)*100.
The “maximum value” was the DMSO control, the “minimum value” indicated the cell-free control group.
as §2

ERK2, sequence (P28482 whole entry): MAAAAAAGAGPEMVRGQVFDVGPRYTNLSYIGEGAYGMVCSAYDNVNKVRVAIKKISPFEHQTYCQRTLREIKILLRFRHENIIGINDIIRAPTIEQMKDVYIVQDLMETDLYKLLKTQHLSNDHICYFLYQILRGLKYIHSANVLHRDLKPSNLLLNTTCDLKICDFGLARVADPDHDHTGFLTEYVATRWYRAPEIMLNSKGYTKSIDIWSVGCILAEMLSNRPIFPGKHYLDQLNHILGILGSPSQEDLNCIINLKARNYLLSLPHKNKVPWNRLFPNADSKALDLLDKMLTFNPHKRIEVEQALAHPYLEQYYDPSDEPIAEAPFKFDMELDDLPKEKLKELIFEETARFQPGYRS

SMILES | IC50 (ERK2) | IC50 (ERK1) | IC50 (COLO205 cells) | IC50 (HCT 116 cells)
CC(C)Nc1cc(-c2cc3n(c2)CC2(COC2)CN(Cc2ccccc2CO)C3=O)c(Cl)cn1 [Example 6, 8′-(5-Chloro-2-(isopropylamino)pyridin-4-yl)-2′-(2-(hydroxymethyl)benzyl)-2′,3-dihydro-1′H,5′H-spiro[oxetane-3,4′-pyrrolo[1,2-a][1,4]diazepine]-1′-one] | 0.5 nM | 0.8 nM | 9 nM | 
CC(C)Nc1cc(-c2cc3n(n2)CC(CO)(CCl)CN(Cc2ccccc2CO)C3=O)c(Cl)cn1 (centres unmarked) [Example 8, 2-(5-Chloro-2-(isopropylamino)pyridin-4-yl)-7-(chloromethyl)-7-(hydroxymethyl)-5-(2-(hydroxymethyl)benzyl)-5,6,7,8-tetrahydro-4H-pyrazolo[1,5-a][1,4]diazepine-4-one] | 1.4 nM | 1.3 nM | 36.1 nM | 
CC(C)Nc1cc(-c2cc3n(c2)CC2(COC2)CN(Cc2cc(F)ccc2CO)C3=O)c(Cl)cn1 [Example 10, 8′-(5-chloro-2-(isopropylamino)pyridin-4-yl)-2′-(5-fluoro-2-(hydroxymethyl)benzyl)-2′,3′-dihydro-1′h,5′h-spiro[oxacyclobutane-3,4′-pyrrolo[1,2-a][1,4]diazepine]-1′-one] | 0.87 nM | 0.89 nM | 16.7 nM | 
CC(C)Nc1cc(-c2cc3n(c2)CC2(COC2)CN(Cc2ccc(F)cc2CO)C3=O)c(Cl)cn1 [Example 13] | 0.89 nM | 0.74 nM | 50.8 nM | 
CC(C)Nc1cc(-c2cc3n(c2)CCCN(Cc2ccccc2CO)C3=O)c(Cl)cn1 [Example 16, 8-(5-chloro-2-(isopropylamino)pyridin-4-yl)-2-(2-(hydroxylmethyl)benzyl)-2,3,4,5-tetrahydro-1h-pyrrolo [1,2-a][1,4]diazepine-1-one] | 0.6 nM | 0.9 nM | 56 nM | 
CC(C)Nc1cc(-c2cc3n(c2)CC2(COC2)CN(Cc2cc(F)c(F)cc2CO)C3=O)c(Cl)cn1 [Example 17] | 0.4 nM | 0.47 nM | 25 nM | 
CC(C)Nc1cc(-c2cc3n(c2)CCN(Cc2cc(F)ccc2CO)C3=O)c(Cl)cn1 [Example 18, 7-(5-chloro-2-(isopropylamino)pyridin-4-yl)-2-(5-fluoro-2-(hydroxymethyl)benzyl)-3,4-dihydropyrrolo[1,2-a]pyrazine-1(2H)-one] | 0.49 nM | 0.4 nM | 56.6 nM | 
CC(C)Nc1cc(-c2cc3n(c2)CC(O)CN(Cc2cc(F)ccc2CO)C3=O)c(Cl)cn1 (centres unmarked) [Example 20, 8-(5-chloro-2-(isopropylamino)pyridin-4-yl)-2-(5-fluoro-2-(hydroxymethyl)benzyl)-4-hydroxy-2,3,4,5-tetrahydro-1h-pyrrolo [1,2-a][1,4]diazepine-1-one] | 0.56 nM | 0.34 nM | 76.7 nM | 
CC(C)Nc1cc(-c2cc3n(c2)CCCN(Cc2cc(F)c(F)cc2CO)C3=O)c(Cl)cn1 [Example 21, 8-(5-chloro-2-(isopropylamino)pyridin-4-yl)-2-(4,5-difluoro-2-(hydroxymethyl)benzyl)-2,3,4,5-tetrahydro-1h-pyrrolo[1,2-a][1,4] diazepine-1-one] | 0.76 nM | 0.73 nM | 73.3 nM | 
Cc1cnc(Nc2ccnn2C)nc1-c1c[nH]c(C(=O)NCc2cc(F)ccc2CO)c1 [Example 22, N-(5-fluoro-2-(hydroxymethyl)benzyl)-4-(5-methyl-2-((1-methyl-1H-pyrazol-5-yl)amino)pyrimidin-4-yl)-1H-pyrrole-2-carboxamide] | 0.34 nM | 0.43 nM | 35.3 nM | 
Cc1cnc(Nc2ccnn2C)nc1-c1cc2n(c1)CCN(Cc1cc(F)ccc1CO)C2=O [Example 23, 2-(5-Fluoro-2-(hydroxymethyl)benzyl)-7-(5-methyl-2-((1-methyl-1H-pyrazol-5-yl)amino)pyrimidin-4-yl)-3,4-dihydropyrrolo[1,2-a]pyrazine-1(2H)-one] | 0.48 nM | 0.42 nM | 18.7 nM | 
CC(C)Nc1cc(-c2cc3n(c2)CC2(CNC2)CN(Cc2ccccc2CO)C3=O)c(Cl)cn1 [Example 24, 8′-(5-Chloro-2-(isopropylamino)pyridin-4-yl)-2′-(2-(hydroxymethyl)benzyl)-2′,3′-dihydro-1′H,5′H-spiro[azetidine-3,4′-pyrrolo[1,2-a][1,4]diazepine]-1′-one] | 0.53 nM | 0.65 nM | 50 nM | 
CC(C)Nc1cc(-c2cc3n(c2)CC(CO)(CO)CN(Cc2ccccc2CO)C3=O)c(Cl)cn1 [Example 27] | 0.59 nM | 0.96 nM | 9.6 nM | 
Cc1cnc(NC2CCOC2)nc1-c1cc2n(c1)CCN(Cc1cc(F)ccc1CO)C2=O (centres unmarked) [Example 33, 2-(5-fluoro-2-(hydroxymethyl)benzyl)-7-(5-methyl-2-((tetrahydrofuran-3-yl)amino)pyrimidin-4-yl)-3,4-dihydropyrrolo[1,2-a]pyrazine-1(2H)-one] | 0.4 nM | 0.45 nM | 76 nM | 
COC[C@H]1Cn2cc(-c3cc(Nc4ccnn4C(F)F)ncc3Cl)cc2C(=O)N1Cc1cc(F)ccc1CO [Example 54, (R)-7-(5-chloro-2-((1-(difluoromethyl)-1H-pyrazol-5-yl)amino)pyridin-4-yl)-2-(5-fluoro-2-(hydroxymethyl)benzyl)-3-(methoxymethyl)-3,4-dihydropyrrolo[1,2-a]pyrazine-1(2H)-ketone] |  |  |  | 16.2 nM
COC[C@H]1Cn2cc(-c3cc(Nc4conc4C)ncc3Cl)cc2C(=O)N1Cc1cc(F)ccc1CO [Example 83, (R)-7-(5-chloro-2-((3-methylisoxazole-4-yl)amino)pyridine-4-yl)-2-(5-fluoro-2-(hydroxymethyl)benzyl)-3-(methoxymethyl)-3,4-dihydropyrrolo[1,2-a] pyrazine-1(2H)-one] |  |  |  | 23 nM
COC[C@H]1Cn2cc(-c3cc(Nc4ccn(C)n4)ncc3Cl)cc2C(=O)N1Cc1cc(F)ccc1CO [Example 86, (R)-7-(5-chloro-2-((1-methyl-1h-pyrazole-3-yl)amino)pyridine-4-yl)-2-(5-fluoro-2-(hydroxymethyl)benzyl)-3-(methoxymethyl)-3,4-dihydropyrrolo[1,2-a] pyrazine-1(2H)-one] | 0.8 nM | 0.91 nM | 29.4 nM | 
COC[C@H]1Cn2cc(-c3cc(Nc4ccnn4CC(F)F)ncc3Cl)cc2C(=O)N1Cc1cc(F)ccc1CO [Example 115, (R)-7-(5-chloro-2-((1-(2,2-difluoroethyl)-1h-pyrazole-5-yl)amino)pyridine-4-yl)-2-(5-fluoro-2-(hydroxymethyl)benzyl)-3-(methoxymethyl)-3,4-dihydropyrrolo[1,2-a] pyrazine-1(2H)-one] | 1.2 nM | 1.6 nM | 16.7 nM | 
Cn1nccc1Nc1cc(-c2cc3n(c2)CCN(Cc2ccc(F)cc2CO)C3=O)c(Cl)cn1 [Example 149, 7-(5-chloro-2-((1-methyl-1h-pyrazole-5-yl)amino)pyridine-4-yl)-2-(4-fluoro-2-(hydroxymethyl)benzyl)-3,4-dihydropyrrolo[1,2-a] pyrazine-1(2H)-one] |  |  |  | 21.2 nM
Cn1nccc1Nc1cc(-c2cc3n(c2)CCN(Cc2cc(F)ccc2CO)C3=O)c(C(F)(F)F)cn1 [Example 161, (5-fluoro-2-(hydroxylmethyl)benzyl)-7-(2-((1-methyl-1h-pyrazole-5-yl)amino)-5-(trifluoromethyl)pyridin-4-yl)-3,4-dihydropyrrolo [1,2-a]pyrazine-1(2H)-one] |  |  |  | 24.6 nM
CC(C)Nc1cc(-c2c[nH]c(C(=O)NCc3cccc(F)c3)c2)c(Cl)cn1 [Example D6, 4-(5-chloro-2-(isopropylamino)pyridine-4-yl)-N-(3-fluorobenzyl)-1h-pyrrole-2-formamide, reference compound] | 26 nM | 44 nM | > 10000 nM | 
CC(C)Nc1cc(-c2cc3n(c2)CC(CO)CN(Cc2cccc(Cl)c2)C3=O)c(Cl)cn1 (centres unmarked) [Example D7, 8-(5-chloro-2-(isopropylamino)pyridin-4-yl)-2-(3-chlorophenylmethyl)-4-(hydroxymethyl)-2,3,4,5-tetrahydro-1h-pyrrolo [1,2-a][1,4]diazepine-1-one, reference compound] | > 300 nM | > 300 nM | > 10000 nM | 
Cn1nccc1Nc1cc(-c2cc3n(c2)CCN(Cc2cccc(F)c2)C3=O)c(Cl)cn1 [Example D9, 7-(5-chloro-2-((1-methyl-1h-pyrazole-5-yl)amino)pyridine-4-yl)-2-(3-fluorobenzyl)-3,4-dihydropyrrolo[1,2-a] pyrazine-1(2H)-one, reference compound] |  |  |  | 53.6 nM
